According to patent US20240327434A1, “FUSED TETRACYCLIC COMPOUND, PREPARATION METHOD THEREFOR AND APPLICATION THEREOF IN MEDICINE” (Jiangsu Hengrui Pharmaceuticals Co., Ltd., priority 2021, published 2024):

Legend:
[1] = tested on: ERK phosphorylation of AGS cells; experiment: Inhibition of ERK phosphorylation of AGS cells (HTRF method); format: cell-based; settings: Homo sapiens, 1 h compound incubation, phosphorylated ERK/total ERK ratio, read-out: AGS/ IC50 (nM), inhibitory activity for ERK phosphorylation
Method: In the experiment, the inhibition effect of the compounds on ERK phosphorylation of the cells was detected, and the inhibition effect of the compounds disclosed herein on the KRAS target was evaluated according to the IC50.
AGS cells (Nanjing Cobioer, CBP60476) were cultured in RPMI1640 (Hyclone, SH30809.01) complete medium containing 10% fetal bovine serum. On the first day of the experiment, the AGS cells were seeded into a 96-well plate with complete medium at a density of 40,000 cells/well to form 190 μL of cell suspension per well. The plate was incubated overnight in a cell incubator at 37° C. with 5% CO2.
The next day, 10 μL of serially-diluted test compound prepared from the complete medium was added to each well. The final concentrations of the compound were 9 concentration points obtained by 5-fold serial dilution from 10 μM. A blank control containing 0.5% DMSO was set. The well plate was incubated in a cell incubator at 37° C. with 5% CO2 for 1 h. After completion of incubation, the 96-well cell culture plate was taken out, the medium was removed by pipetting, 200 μL PBS (Shanghai BasalMedia Technologies Co., Ltd., B320) was added to each well, and the cells were washed once. PBS was removed by pipetting, 50 μL of lysis buffer (Cisbio, 64KL1FDF) containing a blocking solution (blocking reagent, Cisbio, 64KB1AAC) was added to each well, and the well plate was lysed on a shaker for 40 min at room temperature with shaking. After lysis, the lysate was pipetted and mixed well, 16 μL of lysate was transferred to two HTRF 96-well assay plates (Cisbio, 66PL96100) per well, and then 4 μL of premixed phosphorylated ERK1/2 antibody solution (Cisbio, 64AERPEG) or 4 μL of premixed total ERK1/2 antibody solution (Cisbio, 64NRKPEG) was added to these two plates. The microplate was sealed with a sealing membrane, centrifuged for 1 min in a microplate centrifuge, and incubated overnight at room temperature in the dark. On the third day, the fluorescence values at an excitation wavelength of 337 nm and at emission wavelengths of 665 nm and 620 nm were read using an ENVISION multifunctional microplate reader (PerkinElmer, ENVISION).

GP2d cells = experiment: Inhibition of 3D proliferation of GP2d cells (CellTiter-Glo 3D); format: cell-based; settings: 120 h incubation, read-out: GP2d/ IC50 (nM), inhibitory activity for 3D proliferation
Method: (§1) The inhibition effect of the compounds disclosed herein on the KRAS target was evaluated by testing the 3D proliferation inhibition effect of the compounds disclosed herein on GP2d and AGS cells.
GP2d cells (Nanjing Cobioer, CBP60010) were cultured in a complete medium, namely DMEM/high glucose medium (Hyclone, SH30243.01) containing 10% fetal bovine serum (Corning, 35-076-CV). On the first day of the experiment, GP2d cells were seeded into a 96-well low adsorption plate (Corning, CLS7007-24EA) with complete medium at a density of 1,000 cells/well to form 90 μL of cell suspension per well. The plate was centrifuged at 2,000 rpm for 5 min at room temperature and then incubated overnight in a cell incubator at 37° C. with 5% CO2.
The next day, 10 μL of serially-diluted test compound prepared from the complete medium was added to each well. […] A blank control containing 0.5% DMSO was set. The well plate was incubated in a cell incubator at 37° C. with 5% CO2 for 120 h.

[2] = target: KRAS protein subtype WT (Avi-KRAS-WT) (Homo sapiens (Human), UniProt P01116); experiment: SPR affinity for KRAS protein subtype WT (Biacore 8K); format: binding; settings: single-cycle kinetic mode, 1:1 model, read-out: WT KD (unit mol/L)
KRAS protein subtype WT (Avi-KRAS-WT), sequence (P01116 whole entry): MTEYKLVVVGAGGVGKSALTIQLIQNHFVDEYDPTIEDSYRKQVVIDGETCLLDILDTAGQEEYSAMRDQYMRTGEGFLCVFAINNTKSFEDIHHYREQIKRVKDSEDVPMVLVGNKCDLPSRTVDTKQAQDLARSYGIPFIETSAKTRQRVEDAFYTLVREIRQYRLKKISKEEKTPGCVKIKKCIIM
Method: (§2) Biotinylated Avi-KRAS-WT or Avi-KRAS-G12D was diluted to 20 μg/mL with 1x HBS-P+(Cat. #BR1006-71) buffer containing 100 mM MgCl2, and then flowed through SA (Cat. #BR1005-31) biosensing chip channel 2 for 420 s to obtain a coupling level of approximately 5000-7000 RU. Then samples of small molecular compounds were injected for 120 s in an ascending order, and then were dissociated for 720 s. The experiment employed a single-cycle kinetic mode. Reaction signals were detected in real time using a Biacore 8K instrument to obtain association and dissociation curves. After the experiment ended, data analysis was performed using Biacore 8K evaluation software, and affinity data were obtained by performing data fitting using a 1:1 model.

[3] = target: KRAS protein subtype G12D (Avi-KRAS-G12D) (Homo sapiens (Human), UniProt P01116, G12D); experiment: SPR affinity for KRAS protein subtype G12D (Biacore 8K); format: binding; settings: single-cycle kinetic mode, 1:1 model, read-out: G12D KD (unit mol/L)
KRAS protein subtype G12D (Avi-KRAS-G12D), sequence (P01116 whole entry G12D): as the sequence (P01116 whole entry) above, with G12D counted along it
Method: as §2

AGS cells = experiment: Inhibition of 3D proliferation of AGS cells (CellTiter-Glo 3D); format: cell-based; settings: Homo sapiens, 120 h incubation, read-out: AGS/ IC50 (nM), inhibitory activity for 3D proliferation
Method: as §1
AGS cells (Nanjing Cobioer, CBP60476) were cultured in a complete medium, namely RPMI1640 medium (Hyclone, SH30809.01) containing 10% fetal bovine serum (Corning, 35-076-CV). On the first day of the experiment, the AGS cells were seeded into a 96-well low adsorption plate (Corning, CLS7007-24EA) at a density of 1,000 cells/well using complete medium to form 90 μL of cell suspension per well. The plate was centrifuged at 2,000 rpm for 5 min at room temperature and then incubated overnight in a cell incubator at 37° C. with 5% CO2.
The next day, 10 μL of serially-diluted test compound prepared from the complete medium was added to each well. […] On the seventh day, the 96-well cell culture plate was taken out, 50 μL CellTiter-Glo® 3D reagent (Promega, G9682) was added into each well, the plate was shaken at room temperature for 25 min, pipetted and mixed well, 50 μL of the solution was transferred into a white impermeable 96-well plate (PE, 6005290), and the luminescence signal values were read using a multifunctional microplate reader (PerkinElmer, ENVISION).

| Structure (SMILES) | IC50 [1] [nM] | IC50 (GP2d cells) [nM] | Kd [2] [nM] | Kd [3] [nM] | IC50 (AGS cells) [nM] |
| --- | --- | --- | --- | --- | --- |
| Oc1cc(-c2cc3nc(OC[C@@]45CCCN4C[C@H](F)C5)nc4c3c(n2)OCC2C3CCC(CN42)N3)c2c(F)cccc2c1 (mixture of isomers) [Diastereomeric (1:1) mixture of 1-p1 and 1-p2, 5-Fluoro-4-(12-(((2R,7aS)-2-fluorotetrahydro-1 H-pyrrolizin-7a(5H)-yl)methoxy)-5a,6,7,8,9,10-hexahydro-5H-4-oxa-3,10a,11,13,14-pentaaza-6,9-methanonaphtho[1,8-ab]heptalen-2-yl) naphthalen-2-ol] | 94.1 |  |  |  |  |
| CCc1cccc2cc(O)cc(-c3nc4c5c(nc(OC[C@@]67CCCN6C[C@H](F)C7)nc5c3F)N3CC5CCC(N5)C3CO4)c12 (mixture of isomers) [Diastereomeric (1:1) mixture of 4-p1 and 4-p2, 5-Ethyl-4-(1-fluoro-12-(((2R,7aS)-2-fluorotetrahydro-1H-pyrrolizin-7a(5H)-yl)methoxy)-5a,6,7,8,9,10-hexahydro-5H-4-oxa-3,10a,11,13,14-pentaaza-6,9-methanonaphtho[1,8-ab]heptalen-2-yl)naphthalen-2-ol] | 1.35 |  |  |  |  |
| CCc1cccc2cc(O)cc(-c3cc4c5c(nc(OC[C@@]67CCCN6C[C@H](F)C7)nc5c3F)N3CC5CCC(N5)C3CO4)c12 (mixture of isomers) [Diastereomeric (1:1) mixture of 11-p1 and 11-p2, 5-Ethyl-4-(1-fluoro-13-(((2R,7aS)-2-fluorotetrahydro-1H-pyrrolizin-7a(5H)-yl)methoxy)-5a,6,7,8,9,10-hexahydro-5H-6,9-epiminoazepino[2′,1′: 3,4][1,4]oxazepino[5,6,7-de]quinazolin-2-yl) naphthalen-2-ol] | 15.6 | 62.5 |  |  |  |
| CCc1cccc2cc(O)cc(-c3cc4nc(OC[C@@]56CCCN5C[C@H](F)C6)nc5c4c(n3)OCC3C4CCC(CN53)N4)c12 (mixture of isomers) [Diastereomeric (1:1) mixture of 2-p1 and 2-p2, 5-Ethyl-4-(12-(((2R,7aS)-2-fluorotetrahydro-1H-pyrrolizin-7a(5H)-yl)methoxy)-5a,6,7,8,9,10-hexahydro-5H-4-oxa-3,10a,11,13,14-pentaaza-6,9-methanonaphtho[1,8-ab]heptalen-2-yl) naphthalen-2-ol] |  |  | 32.4 | 0.4 |  |
| CCc1cccc2cc(O)cc(-c3nc4c5c(nc(OC[C@@]67CCCN6C[C@H](F)C7)nc5c3F)N3C[C@H]5CC[C@H](N5)[C@H]3CO4)c12 [Example 4-p1, 5-Ethyl-4-((5aS,6S,9R)-1-fluoro-12-(((2R,7aS)-2-fluorotetrahydro-1H-pyrrolizin-7a(5H)-yl)methoxy)-5a,6,7,8,9,10-hexahydro-5H-4-oxa-3,10a, 11,13,14-pentaaza-6,9-methanonaphtho[1,8-ab]heptalen-2-yl)naphthalen-2-ol] |  |  | 3.4 | 0.14 |  |
| Oc1cc(Cl)c(C2CC2)c(-c2nc3c4c(nc(OC[C@@]56CCCN5C[C@H](F)C6)nc4c2F)N2C[C@H]4CC[C@H](N4)[C@H]2CO3)c1 [Example 6-p1, 3-Chloro-4-cyclopropyl-5-((5aS,6S,9R)-1-fluoro-12-(((2R,7aS)-2-fluorotetrahydro-1H-pyrrolizin-7a(5H)-yl)methoxy)-5a,6,7,8,9,10-hexahydro-5H-4-oxa-3,10a,11,13,14-pentaaza-6,9-methanonaphtho[1,8-ab]heptalen-2-yl)phenol] |  |  | 7 | 0.1 |  |
| Oc1cc(-c2nc3c4c(nc(OC[C@@]56CCCN5C[C@H](F)C6)nc4c2F)N2C[C@H]4CC[C@H](N4)[C@H]2CO3)c2c(F)c(F)ccc2c1 [Example 8-p1, 5,6-Difluoro-4-((5aS,6S,9R)-1-fluoro-12-(((2R,7aS)-2-fluorotetrahydro-1H-pyrrolizin-7 a(5H)-yl)methoxy)-5a,6,7,8,9,10-hexahydro-5H-4-oxa-3,10a,11,13,14-pentaaza-6,9-methanonaphtho[1,8-ab]heptalen-2-yl)naphthalen-2-ol] |  |  | 3.8 | 0.1 |  |
| CCc1c(F)ccc2cc(O)cc(-c3nc4c5c(nc(OC[C@@]67CCCN6C[C@H](F)C7)nc5c3F)N3C[C@H]5CC[C@H](N5)[C@H]3CO4)c12 [Example 9-p1, 5-Ethyl-6-fluoro-4-((5aS,6S,9R)-1-fluoro-12-(((2R,7aS)-2-fluorotetrahydro-1H-pyrrolizin-7a(5H)-yl)methoxy)-5a,6,7,8,9,10-hexahydro-5H-4-oxa-3,10a, 11,13,14-pentaaza-6,9-methanonaphtho[1,8-ab]heptalen-2-yl)naphthalen-2-ol] |  |  | 1.54 | 0.03 |  |
| CCc1c(F)ccc2cc(O)cc(-c3nc4c5c(nc(OCC6(CN7C[C@H]8C[C@H]8[C@H]7CO)CC6)nc5c3F)N3C[C@H]5CC[C@H](N5)[C@H]3CO4)c12 [Example 22, 5-Ethyl-6-fluoro-4-((5aS,6S,9R)-1-fluoro-12-((1-(((1R,2S,5S)-2-(hydroxymethyl)-3-azabicyclo[3.1.0]hex-3-yl)methyl)cyclopropyl)methoxy)-5a,6,7,8,9,10-hexahydro-5H-4-oxa-3,10a, 11,13,14-pentaaza-6,9-methanonaphtho[1,8-ab]heptalen-2-yl)naphthalen-2-ol] | 10.2 | 9.6 |  |  |  |
| CCc1c(F)ccc2cc(O)cc(-c3nc4c5c(nc(OCC6(CN7CC8CC8(CO)C7)CC6)nc5c3F)N3C[C@H]5CC[C@H](N5)[C@H]3CO4)c12 (stereo partly drawn) [Example 23, 5-Ethyl-6-fluoro-4-((5aS,6S,9R)-1-fluoro-12-((1-((1-(hydroxymethyl)-3-azabicyclo[3.1.0]hex-3-yl)methyl)cyclopropyl)methoxy)-5a,6,7,8,9,10-hexahydro-5H-4-oxa-3,10a, 11,13,14-pentaaza-6,9-methanonaphtho[1,8-ab]heptalen-2-yl)naphthalen-2-ol] | 4 | 8.8 |  |  | 108 |
